In brackets after ≈: the same amount, converted by molar mass. Where only a bound is given, the exact number is not on record here.

Assay [1] concerns Myzus persicae. Description: Insecticidal activity against Myzus persicae (green peach aphid) in compound treated radish leaf assessed as mortality at 500 ppm. The assay is classed as functional.
The subject of assay [2] is Nephotettix cincticeps. Description: Insecticidal activity against Nephotettix cincticeps (green rice leafhopper) in compound treated rice seedlings assessed as mortality at 500 ppm. It counts as functional.
The test system of assay [3] is Plutella xylostella. Description: Insecticidal activity against Plutella xylostella (diamondback moth) in compound treated radish leaf assessed as mortality at 500 ppm. It counts as functional.
The subject of assay [4] is Tetranychus urticae. Description: Acaricidal activity against Tetranychus urticae (two-spotted spider mite) in compound treated kidney bean leaf assessed as mortality of egg at 1000 ppm at 24 degC measured after 1 week. The assay is classed as functional. The following applies: 168 h.
Assay [5] concerns Tetranychus urticae. Description: Acaricidal activity against Tetranychus urticae (two-spotted spider mite) in compound treated kidney bean leaf assessed as larvicidal activity. It counts as functional.
The subject of assay [6] is Chilo suppressalis. Description: Insecticidal activity against Chilo suppressalis (rice stem borer) larvae assessed as inhibition of incorporation of N-acetyl-[1-14C]glucosamine. It counts as functional, organism-based.

With `Clc1ccc(C2=NC(c3ccccc3)CO2)cc1` (stereo unspecified), the mortality at 500 ppm stood at 0% in assay [1], 0% in assay [2] and 60% in assay [3]. In addition, the mortality at 1000 ppm in assay [4] stood at 0%. Also, the 50% lethal concentration (LC50) in assay [5] was 100 µg/mL (≈ 388 µM).

For the compound `Fc1cccc(Cl)c1C1=NC(c2ccccc2)CO1` (stereo unspecified), the mortality at 500 ppm in assay [1] amounted to 10%; in assay [2], 35%; in assay [3] it was 0%. Besides, the mortality at 1000 ppm in assay [4] was found to be 0%. For the same compound, the LC50 in assay [5] was 0.01 µg/mL (≈ 0.0363 µM).

Consider `Cc1cccc(C2=NC(c3ccccc3)CO2)c1` (stereo unspecified), for which the mortality at 500 ppm in assay [1] was determined as 0%; in assay [2], 10%; in assay [3], 0%. Further, the mortality at 1000 ppm in assay [4] worked out at 0%. The LC50 in assay [5] was greater than 1000 µg/mL.

As for `Clc1cccc(C2=NC(c3ccccc3)CO2)c1Cl` (stereo unspecified), the mortality at 500 ppm in assay [1], in assay [2] and in assay [3] was 0% throughout. For the same compound, the mortality at 1000 ppm in assay [4] was found to be 0%. Further, the 50% lethal concentration (LC50) in assay [5] was determined as 10 µg/mL (≈ 34.2 µM).

Turning to `CCSc1ccccc1C1=NC(c2ccccc2)CO1` (stereo unspecified), the results for the mortality at 500 ppm in assay [1], in assay [2] and in assay [3] were 0%, 10% and 10%, respectively. The mortality at 1000 ppm in assay [4] was 10%. Moreover, in assay [5], the median lethal concentration (LC50) was 100 µg/mL (≈ 353 µM).

Regarding `Fc1ccccc1C1=NC(c2ccccc2)CO1` (stereo unspecified), the mortality at 500 ppm in assay [1] stood at 0%; in assay [2] it was 10%; in assay [3] it was 35%. The mortality at 1000 ppm in assay [4] amounted to 10%. Moreover, the LC50 in assay [5] was 10 µg/mL (≈ 41.4 µM).

As to `COc1ccccc1C1=NC(c2ccccc2)CO1` (stereo unspecified), the figures for the mortality at 500 ppm in assay [1], in assay [2] and in assay [3] were 0%, 10% and 10%, respectively. In addition, in assay [4], the mortality at 1000 ppm was 0%. For the same compound, in assay [5], the median lethal concentration (LC50) was determined as 10 µg/mL (≈ 39.5 µM).

As for `COc1ccc(C2=NC(c3ccccc3)CO2)cc1` (stereo unspecified), the mortality at 500 ppm in assay [1] amounted to 0%; in assay [2], 10%; in assay [3], 0%. Besides, the mortality at 1000 ppm in assay [4] came to 0%. In assay [5], the LC50 is 100 µg/mL (≈ 395 µM).

Regarding `Clc1cccc(C2=NC(c3ccccc3)CO2)c1` (stereo unspecified), the mortality at 500 ppm in assay [1] came out at 0%; in assay [2] it was 0%; in assay [3], 60%. The mortality at 1000 ppm in assay [4] amounted to 10%. Besides, the LC50 in assay [5] came out at 100 µg/mL (≈ 388 µM).

Turning to `Cc1ccccc1C1=NC(c2ccccc2)CO1` (stereo unspecified), the mortality at 500 ppm in assay [1] is 60%; in assay [2] it was 0%; in assay [3], 60%. Further, in assay [4], the mortality at 1000 ppm came out at 60%. Moreover, the LC50 in assay [5] is 100 µg/mL (≈ 421 µM).

On to `Brc1ccccc1C1=NC(c2ccccc2)CO1` (stereo unspecified), for which the results for the mortality at 500 ppm in assay [1], in assay [2] and in assay [3] were 0%, 0% and 60%, respectively. Further, the mortality at 1000 ppm in assay [4] worked out at 10%. In addition, the LC50 in assay [5] was 0.1 µg/mL (≈ 0.331 µM).

As for `Ic1ccccc1C1=NC(c2ccccc2)CO1` (stereo unspecified), the mortality at 500 ppm in assay [1] is 0%; in assay [2] it was 0%; in assay [3] it was 35%. The mortality at 1000 ppm in assay [4] was determined as 10%. Moreover, in assay [5], the median lethal concentration (LC50) worked out at 1 µg/mL (≈ 2.86 µM).

Take `Clc1ccccc1C1=NC(c2ccccc2)CO1` (stereo unspecified): the figures for the mortality at 500 ppm in assay [1], in assay [2] and in assay [3] were 0%, 10% and 35%, respectively. In assay [4], the mortality at 1000 ppm was determined as 10%. In assay [5], the LC50 was 1 µg/mL (≈ 3.88 µM).

As for `Cc1ccc(C2=NC(c3ccccc3)CO2)cc1` (stereo unspecified), the mortality at 500 ppm in assay [1], in assay [2] and in assay [3] was 0% each time. Moreover, the mortality at 1000 ppm in assay [4] is 0%. In addition, the LC50 in assay [5] is greater than 1000 µg/mL.

Take `CCOc1ccccc1C1=NC(c2ccccc2)CO1` (stereo unspecified): the mortality at 500 ppm in assay [1], in assay [2] and in assay [3] was 0% throughout. For the same compound, the mortality at 1000 ppm in assay [4] was found to be 0%. Moreover, in assay [5], the LC50 is greater than 1000 µg/mL.

In the case of `c1ccc(C2=NC(c3ccccc3)CO2)cc1` (stereo unspecified), the mortality at 500 ppm in assay [1] was found to be 0%; in assay [2], 0%; in assay [3], 60%. Besides, the mortality at 1000 ppm in assay [4] is 0%. Besides, in assay [5], the LC50 turned out to be 10 µg/mL (≈ 44.8 µM).

`Fc1cccc(F)c1C1=NCC(c2ccccc2)O1` (stereo unspecified): the mortality at 500 ppm is 85% in assay [1], 10% in assay [2] and 35% in assay [3]. For the same compound, the mortality at 1000 ppm in assay [4] came out at 0%. Also, the 50% lethal concentration (LC50) in assay [5] worked out at 1 µg/mL (≈ 3.86 µM).

Consider `CC1(c2ccccc2)COC(c2c(F)cccc2F)=N1` (stereo unspecified), for which the mortality at 500 ppm in assay [1], in assay [2] and in assay [3] was 0% in each case. Besides, in assay [4], the mortality at 1000 ppm amounted to 0%. The 50% lethal concentration (LC50) in assay [5] was 100 µg/mL (≈ 366 µM).

`Clc1cccc(Cl)c1C1=NC(c2ccccc2)CO1` (stereo unspecified): the mortality at 500 ppm in assay [1] was 10%; in assay [2], 0%; in assay [3], 10%. Also, in assay [4], the mortality at 1000 ppm worked out at 0%. For the same compound, the LC50 in assay [5] is 1 µg/mL (≈ 3.42 µM).

Regarding `FC(F)(F)c1ccccc1C1=NC(c2ccccc2)CO1` (stereo unspecified), the mortality at 500 ppm was found to be 10% in assay [1], 0% in assay [2] and 35% in assay [3]. In assay [4], the mortality at 1000 ppm is 0%. Moreover, the LC50 in assay [5] was 100 µg/mL (≈ 343 µM).

With `Clc1ccc(C2=NC(c3ccccc3)CO2)c(Cl)c1` (stereo unspecified), the mortality at 500 ppm in assay [1] was 0%; in assay [2] it was 0%; in assay [3] it was 10%. Moreover, the mortality at 1000 ppm in assay [4] worked out at 10%. Besides, in assay [5], the LC50 amounted to 10 µg/mL (≈ 34.2 µM).

With `Clc1ccc(Cl)c(C2=NC(c3ccccc3)CO2)c1` (stereo unspecified), the mortality at 500 ppm in assay [1] came to 0%; in assay [2], 0%; in assay [3] it was 35%. Also, the mortality at 1000 ppm in assay [4] is 0%. Further, the 50% lethal concentration (LC50) in assay [5] turned out to be 100 µg/mL (≈ 342 µM).

For the compound `Fc1cccc(F)c1C1=NC(c2ccccc2)CO1` (stereo unspecified), the mortality at 500 ppm in assay [1] was found to be 100%; in assay [2], 35%; in assay [3], 0%. The mortality at 1000 ppm in assay [4] was determined as 0%. The 50% lethal concentration (LC50) in assay [5] came out at 1 µg/mL (≈ 3.86 µM).

In the case of `COc1cccc(C2=NC(c3ccccc3)CO2)c1` (stereo unspecified), the mortality at 500 ppm in assay [1], in assay [2] and in assay [3] was 0% each time. The mortality at 1000 ppm in assay [4] amounted to 0%. Besides, in assay [5], the median lethal concentration (LC50) is greater than 1000 µg/mL.

With `c1ccc(Oc2ccccc2C2=NC(c3ccccc3)CO2)cc1` (stereo unspecified), the mortality at 500 ppm in assay [1], in assay [2] and in assay [3] was 0% each time. Moreover, the mortality at 1000 ppm in assay [4] was found to be 0%. Further, the LC50 in assay [5] came out at 100 µg/mL (≈ 317 µM).

With `O=[N+]([O-])c1ccccc1C1=NC(c2ccccc2)CO1` (stereo unspecified), the mortality at 500 ppm in assay [1], in assay [2] and in assay [3] was 0% each time. The mortality at 1000 ppm in assay [4] was 10%. Moreover, the LC50 in assay [5] stood at 100 µg/mL (≈ 373 µM).

As for `CSc1ccccc1C1=NC(c2ccccc2)CO1` (stereo unspecified), the figures for the mortality at 500 ppm in assay [1], in assay [2] and in assay [3] were 0%, 0% and 35%, respectively. The mortality at 1000 ppm in assay [4] stood at 0%. Further, the LC50 in assay [5] stood at 100 µg/mL (≈ 371 µM).

Take `O=C(NC(=O)c1c(F)cccc1F)Nc1ccc(Cl)cc1` [DIFLUBENZURON]: in assay [6], the EC50 was determined as 20 nM.

By mortality is commonly meant the percentage killed. What is called LC50 is the concentration lethal to half of the exposed cells or organisms. What is called EC50 is the concentration giving half of the maximal effect.

The values are drawn from ChEMBL document CHEMBL3045663, “Synthesis and Activity of Novel Acaricidal/Insecticidal 2, 4-Diphenyl-1, 3-oxazolines” (J Pestic Sci, 2002).
